The source of these data is patent publication US11744899B2, “Pharmaceutical composition containing a hyaluronic acid derivative” (SEIKAGAKU CORPORATION, priority 2018, dated 2023).

A short description of data set [1]: Storage test (1-2) using 10 mM citrate buffer solution (pH 5.1). The data set is classed as physicochemical. As to conditions: after storage, 1.0 wt % hyaluronic acid derivative, 10 mM citrate buffer pH 5.1, 1 week at 60° C. As for the experimental part:
A citric acid aqueous solution having a citric acid concentration of 15 mM and a trisodium citrate aqueous solution having a citrate concentration of 15 mM were mixed at a ratio (volume ratio) of 27:37, whereby a citrate buffer solution was prepared. The pH of the citrate buffer solution after preparation was 5.1.
(§1) 1.5 g of the hyaluronic acid derivative of the above Synthesis Example and 98.5 g of each of the various buffer solutions prepared above were mixed and stirred for 2 hours in a water bath at 70° C., whereby a 1.5 wt % hyaluronic acid derivative solution was prepared.
(§2) Additional component aqueous solutions to be added to the hyaluronic acid derivative solution were prepared using various additional components and WFI so that the concentration of each component is three times as high as the final concentration (wt %).
(§3) 2.0 g of the 1.5 wt % hyaluronic acid derivative solution prepared above and 1.0 g of the additional component aqueous solution were mixed, whereby a test sample (final concentration of hyaluronic acid derivative: 1.0 wt %) was prepared.
(§4) The test samples prepared above containing each of the various buffer solutions (50 mM phosphate buffer solution, 10 mM citrate buffer solution, 10 mM acetate buffer solution, or 30 mM acetate buffer solution) were subjected to a storage test.
(§5) Each of the test samples was stored for 1 week in a thermostat chamber at 60° C., and thereafter, the accumulation amount of each of diclofenac and diclofenac lactam was measured by HPLC.
(§6) The amount of diclofenac and the amount of diclofenac lactam were calculated as relative values when each of the amount of diclofenac and the amount of diclofenac lactam present in the control solution (1 wt % hyaluronic acid derivative solution) after being stored for 1 week at 60° C. was assumed to be 1.
(§7) Each of the prepared various test samples was filled in a screw vial (AS ONE Corporation, Cat No. 3-1599-01) and left to stand at 60° C. for 1 week. The amount of diclofenac and the amount of diclofenac lactam present in the solution after being left to stand were quantitatively analyzed by HPLC.
(§8) The HPLC conditions are as follows.
(§9) The elution time of each of diclofenac and diclofenac lactam was determined by performing measurement in advance using a standard substance.
As the additional component, creatinine (1 wt %), sodium deoxycholate (5 wt %), 1,2,3-butanetriol (5 wt %), PEG 400 (6.3 wt % or 16.5 wt %), PEG 600 (10 wt %), PEG 4000 (10 wt %), PEG 6000 (10 wt %), SDS (5 wt %), Triton X-100 (5 wt %), ethanol (26 wt %), octyl glucoside (5 wt %), glucuronolactone (0.1 wt %), chlorogenic acid (0.1 wt %), propylene glycol (10 wt %), polysorbate 20 (5 wt %), or polyvinylpyrrolidone (5 wt %) was used.
Similarly, as the additional component, additional components of a two-component system of PEG 3350 (10.6 wt %) and polysorbate 80 (3 wt %), or PEG 3350 (6.0 wt %) and hydroxypropyl-β-cyclodextrin (10 wt %), or additional components of a three-component system of PEG 3350 (5.5 wt %), polysorbate 80 (1 wt %) and hydroxypropyl-β-cyclodextrin (10 wt %) were used.

The nature of data set [2]: Storage test (1-1) using 50 mM phosphate buffer solution (pH 6.5). The data set is classed as physicochemical. The settings on record: additional component 5 wt %; 1.0 wt % hyaluronic acid derivative, 50 mM phosphate buffer pH 6.5, 1 week at 60° C., HPLC; control solution = 1. As for the experimental part: as §1, §2, §3, §4, §5, §6, §7, §8, §9
Data set [3] in a line: Storage test (1-3) using 30 mM acetate buffer solution (pH 5.1). In kind it is physicochemical. As to conditions: 1.0 wt % hyaluronic acid derivative, 30 mM acetate buffer pH 5.1, 1 week at 60° C., HPLC, control solution = 1. As for the experimental part: An acetic acid aqueous solution having an acetic acid concentration of 15 mM and a sodium acetate aqueous solution having an acetate concentration of 15 mM were mixed at a ratio (volume ratio) of 1:3, whereby an acetate buffer solution was prepared. The pH of the acetate buffer solution after preparation was 5.1. In addition, an acetate buffer solution having an acetic acid concentration of 45 mM and a pH of 5.1 was prepared in a similar manner.
as §1, §2, §3, §4, §5, §6, §7, §8, §9
As the additional component, propyl gallate (1.5 wt %), any one of lactic acid anhydrous (1.5 wt %), hydroxypropyl cellulose (1.5 wt %), starch (1.5 wt %), dextran (5 wt %), sucrose (5 wt %), sodium saccharinate dihydrate (5 wt %), glycine (5 wt %), sodium aspartate (1.5 wt %), L-leucine (1.5 wt %), L-phenylalanine (5 wt %), L-serine (5 wt %), D-mannitol (1.5 wt %), D-sorbitol (5 wt %), hydroxypropyl-β-cyclodextrin (3 wt %, 5 wt %, 10 wt %, or 15 wt %), and ethanol (5 wt %, 10 wt %, 20 wt %, or 26.3 wt %) was used.

A short description of data set [4]: Evaluation of filterability of aqueous composition (Vmax). As to conditions: 1.0 wt % hyaluronic acid derivative, acetate buffer pH 5.1, 0.22 μm PVDF membrane, 0.6 MPa, 70° C. In kind it is physicochemical. As for the experimental part:
The calculation of the maximum treatment amount (Vmax) is more specifically performed as follows. That is, the aqueous composition at a liquid temperature of 70° C. is filtered under a pressure of 0.6 MPa using a polyvinylidene fluoride filtration membrane with a pore size of 0.22 μm. At that time, the total filtration amount per effective filtration area (V) of the filtration membrane is measured every 30 seconds until the flow rate (Q) becomes 1/10 or less of the flow rate at the start of filtration. By plotting the measurement results with the filtration time (t) along the horizontal axis and t/V along the vertical axis, the following formula A is calculated within a range of the measurement point where the transition of t/V is stable. The maximum treatment amount (Vmax) is determined from the reciprocal of the slope a of the calculation formula A (that is, the following calculation formula B). Note that the flow rate (Q) is the filtration amount per unit time (that is, Q=dV/dt).
The hyaluronic acid derivative prepared above and the 15 mM acetate buffer solution (pH 5.1) prepared above were mixed and stirred, and then, defoamed by being left to stand, whereby a 1.5 wt % hyaluronic acid derivative solution was prepared.
150.0 g of the 1.5 wt % hyaluronic acid derivative solution prepared above and 75.0 g of an additional component aqueous solution were mixed, whereby a test sample (final concentration of hyaluronic acid derivative: 1.0 wt %) was prepared.
In addition, a control solution in which 75.0 g of WFI was mixed in place of the additional component aqueous solution was also prepared.
To a stainless steel pressure filter holder in which a polyvinylidene fluoride (PVDF) membrane (47 mm in diameter, effective filtration area: 13.8 cm^2, manufactured by Merck & Co.) with a pore size of 0.22 μm was set, 200 mL of the test sample prepared above was added and pressure was applied at 0.6 MPa at 70° C. The amount of liquid passing through the filter was weighed every 30 seconds, and the maximum treatment amount (Vmax) was calculated from the relationship between the elapsed time and the total filtration amount.

The nature of data set [5]: Storage test (1-4) using 10 mM acetate buffer solution (pH 5.1). The settings on record: additional component 5 wt %; 1.0 wt % hyaluronic acid derivative, 10 mM acetate buffer pH 5.1, 1 week at 60° C., HPLC; control solution = 1. In kind it is physicochemical. As for the experimental part:
An acetic acid aqueous solution having an acetic acid concentration of 15 mM and a sodium acetate aqueous solution having an acetate concentration of 15 mM were mixed at a ratio (volume ratio) of 1:3, whereby an acetate buffer solution was prepared. The pH of the acetate buffer solution after preparation was 5.1. In addition, an acetate buffer solution having an acetic acid concentration of 45 mM and a pH of 5.1 was prepared in a similar manner. […]
as §5, §6
Each of the prepared various test samples was filled in a screw vial (AS ONE Corporation, Cat No. 3-1599-01) and left to stand at 60° C. for 1 week. The amount of diclofenac and the amount of diclofenac lactam present in the solution after being left to stand were quantitatively analyzed by HPLC. […]
as §9

The next data set concerns the target T1, Cox-2 (Homo sapiens, UniProt P35354).
T1 sequence (P35354 18-604): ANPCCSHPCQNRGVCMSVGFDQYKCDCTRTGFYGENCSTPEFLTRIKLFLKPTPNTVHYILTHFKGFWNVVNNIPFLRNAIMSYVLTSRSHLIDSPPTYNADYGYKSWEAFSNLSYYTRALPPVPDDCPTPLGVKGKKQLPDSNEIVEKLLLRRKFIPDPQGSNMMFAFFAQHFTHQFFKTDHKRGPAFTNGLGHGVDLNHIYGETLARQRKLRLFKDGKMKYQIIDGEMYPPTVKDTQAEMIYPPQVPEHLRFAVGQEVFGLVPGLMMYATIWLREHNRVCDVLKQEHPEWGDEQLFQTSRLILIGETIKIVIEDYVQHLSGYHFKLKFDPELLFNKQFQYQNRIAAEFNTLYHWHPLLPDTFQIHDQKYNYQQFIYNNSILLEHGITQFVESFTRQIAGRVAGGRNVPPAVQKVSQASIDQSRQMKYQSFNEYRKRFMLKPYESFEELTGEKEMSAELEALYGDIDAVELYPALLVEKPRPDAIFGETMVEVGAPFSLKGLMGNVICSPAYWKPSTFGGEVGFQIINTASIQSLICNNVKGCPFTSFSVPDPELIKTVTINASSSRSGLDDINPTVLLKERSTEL
The data set is described as follows: Cox-2 inhibitory activity. In kind it is biochemical. As to conditions: ratio to diclofenac.

Turning to `O=C[C@H](O)[C@H]1OC(=O)[C@@H](O)[C@H]1O` [glucuronolactone], the Solution properties entry in data set [1] (additional component 0.1 wt %) is “slightly yellow and clear”. On to `OCC(O)CO` [glycerin], for which the “Dic amount: the relative value of the amount of diclofenac” value (shortened to “Dic amount: the relative value”) in data set [2] turned out to be 1.02. As to `CCCCCCCCCCCCOS(=O)(=O)[O-].[Na+]` [SDS, sodium dodecyl sulfate], the Solution properties entry in data set [1] (additional component 5 wt %) is “colorless and clear”. Take `CC(O)CO` (centres unmarked) [propylene glycol]: the Solution properties entry in data set [1] (additional component 10 wt %) is “colorless and slightly turbid”. Consider `OC[C@H]1OC=C[C@@H](O)[C@@H]1O` [D-glucal], for which the “Dic amount: the relative value” value in data set [2] was found to be 1.15.

For `O=C(/C=C/c1ccc(O)c(O)c1)O[C@@H]1C[C@](O)(C(=O)O)C[C@@H](O)[C@H]1O` [chlorogenic acid], in data set [1] (additional component 0.1 wt %), the Solution properties result was “light yellow and clear”. On to hydroxypropyl-β-cyclodextrin [HP-β-CD], for which the “Dic amount: the relative value” value stood at 0.62 in data set [3] (additional component 3 wt %), 0.54 in data set [3] (additional component 5 wt %), 0.44 in data set [3] (additional component 10 wt %) and 0.36 in data set [3] (additional component 15 wt %). Also, the “Lac amount: the relative value of the amount of diclofenac lactam” value in data set [3] (additional component 3 wt %) turned out to be 0.45; in data set [3] (additional component 5 wt %), 0.34; in data set [3] (additional component 10 wt %), 0.23; in data set [3] (additional component 15 wt %), 0.17. The results for the Maximum treatment amount in data set [4] (additional component 5 wt %) and in data set [4] (additional component 10 wt %) were 8.3 g/cm^2 and 10.4 g/cm^2, respectively.

For the molecule hydroxyethyl-β-cyclodextrin [HE-β-CD], in data set [5], the “Dic amount: the relative value” value worked out at 0.63 and the “Lac amount: the relative value of the amount of diclofenac lactam” value was found to be 0.34. For the molecule `CCCCCCCCO[C@@H]1O[C@H](CO)[C@@H](O)[C@H](O)[C@H]1O` [octyl glucoside], the Solution properties result in data set [1] (additional component 5 wt %) was “colorless and clear”. Turning to octylphenol ethoxylate [Triton X-100], in data set [1] (additional component 5 wt %), the Solution properties entry was “colorless and clear”. Turning to `O=C1Cc2ccccc2N1c1c(Cl)cccc1Cl` [diclofenac lactam], the “Cox-2 inhibitory activity relative to that of diclofenac” value at Cox-2 is given as “about 1/100”. For the molecule `CCO` [ethanol], in data set [1] (additional component 26 wt %), the Solution properties result was “colorless and clear”. The Maximum treatment amount in data set [4] (additional component 5 wt %) is reported as 10.3 g/cm^2; in data set [4] (additional component 10 wt %), 8.2 g/cm^2. Consider polysorbate 20, for which, in data set [1] (additional component 5 wt %), the Solution properties entry was “colorless and clear”. Consider `COc1ccc(O)c(C(C)(C)C)c1` [butylhydroxyanisole], for which, in data set [2], the “Dic amount: the relative value” value is 0.99.
